Like-named read-outs stand apart in the source and are kept apart here. Marks after values point to notes of the source that are not given here. Ends that are not written are not given here.
Columns and labels:
[1] = Rat body weight during oral gavage
Method: (§1) A hyperlipidemic animal model was established as follows: Forty healthy adult male Sprague-Dawley (SD) rats, weighing 200±20 g, were used. A blank control group of 10 rats was fed a standard diet. The remaining 30 rats constituted the modeling group and were fed a high-fat diet (commercially available, 60% fat content).
(§2) The blank control group and the model control group were administered an equal volume of 0.9% physiological saline by oral gavage. The other two groups were administered aqueous solutions of the test samples by oral gavage.
(§3) During the gavage period, the blank control group was fed a standard diet daily, while the other groups continued receiving the high-fat diet. All rats had free access to water. Oral gavage was performed once daily for 4 consecutive weeks, and body weights were measured regularly.

hyperlipidemic rats = experiment: Serum lipid levels in hyperlipidemic rat model after oral gavage; type: in vivo, Sprague-Dawley (SD) rats; conditions: after 4 weeks of oral gavage, high-fat diet rats
Method: After 1-2 weeks of feeding the high-fat diet to the modeling group, blood was collected from the blank control group and the modeling group without fasting (from the inner canthus or tail). Serum was separated as soon as possible after blood collection, and serum levels of Total Cholesterol (TC), Triglycerides (TG), Low-Density Lipoprotein Cholesterol (LDL-C), and High-Density Lipoprotein Cholesterol (HDL-C) were measured. The modeling group was randomly divided into 3 groups (model control group, cholesterol-lowering peptide group, lovastatin control group). No significant differences in TC, TG, LDL-C, and HDL-C were observed among these groups.
All rats had free access to water.

[2] = rat, in vivo, po
Method: as §1, §2, §3

CC[C@H](C)C(=O)O[C@H]1C[C@@H](C)C=C2C=C[C@H](C)[C@H](CC[C@@H]3C[C@@H](O)CC(=O)O3)[C@H]21 [Lovastatin]
effect on rat body weight ([1]; Day 14 and Day 28 of administration, compared among groups): no significant effect | Body Weight (g) At Day 0 of Administration ([1]; high-fat diet rats, oral gavage once daily, Day 0): 200.78 g | Body Weight (g) At Day 14 of Administration ([1]; high-fat diet rats, oral gavage once daily, Day 14): 221.16 g | Body Weight (g) At Day 28 of Administration ([1]; high-fat diet rats, oral gavage once daily, Day 28): 236.39 g | High-Density Lipoprotein Cholesterol (HDL-C) (hyperlipidemic rats): 0.54** | Low-Density Lipoprotein Cholesterol (LDL-C) (hyperlipidemic rats): 0.32** | Total Cholesterol (TC) (hyperlipidemic rats): 3.06** | Triglycerides (TG) (hyperlipidemic rats): 0.98**

FFFPF [FFFPF]
Body Weight (g) At Day 0 of Administration [2]: 200.89 g | Body Weight (g) At Day 14 of Administration [2]: 220.75 g | Body Weight (g) At Day 28 of Administration [2]: 237.35 g

From patent publication US20260078145A1, “Polypeptides having cholesterol-lowering function in soybean protein hydrolysate, preparation method thereof, and uses thereof” (WUHAN ZHENFU INNOVATION BIOPHARMACEUTICAL CO., LTD, priority 2023, published 2026)
